# Results reported in patent publication US9249102B2 (priority 2012, dated 2016).
# Test system: Haemonchus contortus
# Test: Method A: Haemonchus contortus L1 larvae, microtitre plate screen
# Details: 96 h, read-out: motility inhibition
row,SMILES,inhibition at 5 µg/mL [%]
1,"N#Cc1ccc(N[C@H]2CC[C@H](OCC(=O)N3CCN(Cc4oc5ccc(Cl)cc5c4Cl)CC3)CC2)cc1C(F)(F)F [Compound 315, 4-(4-{2-[4-(3,5-dichloro-benzofuran-2-ylmethyl)-piperazin-1-yl]-2-oxo-ethoxy}-cyclohexylamino)-2-trifluoromethyl-benzonitrile]",≥ 90
2,"O=C(CO[C@H]1CC[C@H](Nc2ccc([N+](=O)[O-])c(C(F)(F)F)c2)CC1)N1CCN(c2ccc3cc(Br)ccc3c2F)CC1 [Compound 267, 1-[4-(6-bromo-1-fluoro-naphthalen-2-yl)-piperazin-1-yl]-2-[4-(4-nitro-3-trifluoromethyl-phenylamino)-cyclohexyloxy]-ethanone]",≥ 90
3,"C[C@@H]1CN(C(=O)CO[C@H]2CC[C@H](Nc3ccc([N+](=O)[O-])c(C(F)(F)F)c3)CC2)C[C@H](C)N1Cc1ccc2cc(F)ccc2c1 [Compound 372, 1-[(3S,5R)-4-(6-fluoro-naphthalen-2-ylmethyl)-3,5-dimethyl-piperazin-1-yl]-2-[4-(4-nitro-3-trifluoromethyl-phenylamino)-cyclohexyloxy]-ethanone]",≥ 90
4,"O=C(NCCO[C@H]1CC[C@H](Nc2ccc([N+](=O)[O-])c(C(F)(F)F)c2)CC1)C(=O)Nc1ccc2cc(Cl)ccc2n1 [Compound 241, N^1-(6-chloroquinolin-2-yl)-N^2-(2-(-4-(4-nitro-3-(trifluoromethyl)phenylamino)cyclohexyloxy)ethyl)oxalamide]",≥ 90
5,"C[C@@H]1CN(Cc2nc3cc(C(F)(F)F)ccc3s2)[C@@H](C)CN1C(=O)CO[C@H]1CC[C@H](Nc2ccc([N+](=O)[O-])c(C(F)(F)F)c2)CC1 [Compound 365, 1-[(2R,5S)-2,5-dimethyl-4-(5-trifluoromethyl-benzothiazol-2-ylmethyl)-piperazin-1-yl]-2-[4-(4-nitro-3-trifluoromethyl-phenylamino)-cyclohexyloxy]-ethanone]",≥ 90
6,"N#Cc1ccc(N[C@H]2CC[C@H](OCC(=O)N3CCN(C(=O)C4Cc5cc(F)ccc5O4)CC3)CC2)cc1C(F)(F)F (stereo partly drawn) [Compound 86, 4-(4-{2-[4-(5-fluoro-2,3-dihydro-benzofuran-2-carbonyl)-piperazin-1-yl]-2-oxo-ethoxy}-cyclohexylamino)-2-trifluoromethyl-benzonitrile]",≥ 90
7,"O=C(CO[C@H]1CC[C@H](Nc2ccc([N+](=O)[O-])c(C(F)(F)F)c2)CC1)N1CCN(Cc2cc3cc(Cl)cc(Br)c3o2)CC1 [Compound 321, 2-[(4-[[4-nitro-3-(trifluoromethyl)phenyl]amino]cyclohexyl)-oxy]1-[4-(5-chloro-7-bromobenzofuran-2-ylmethyl)piperazin-1-yl]ethan-1-one]",≥ 90
8,"O=C(COc1ccc(Nc2ccc([N+](=O)[O-])c(C(F)(F)F)c2)cc1)N1CCN(C(=O)c2cc3cc(C(F)(F)F)ccc3o2)CC1 [Compound 191, 2-(4-[[4-nitro-3-(trifluoromethyl)phenyl]amino]phenoxy)-1-(4-[[5-(trifluoromethyl)-1-benzofuran-2-yl]carbonyl]piperazin-1-yl)ethan-1-one]",≥ 90
9,"CN(c1ccc(C#N)c(C(F)(F)F)c1)[C@H]1CC[C@H](OCC(=O)N2CCN(c3ccc4cc(F)ccc4c3)CC2)CC1 [Compound 293, 4-[(4-{2-[4-(6-fluoro-naphthalen-2-yl)-piperazin-1-yl]-2-oxo-ethoxy}-cyclohexyl)-methyl-amino]-2-trifluoromethyl-benzonitrile]",≥ 90
10,"O=C(CO[C@H]1CC[C@H](Nc2ccc([N+](=O)[O-])c(C(F)(F)F)c2)CC1)N1CCN(Cc2cc3cc(Cl)cc(Cl)c3o2)CC1 [Compound 319, 2-[(4-[[4-nitro-3-(trifluoromethyl)phenyl]amino]cyclohexyl)-oxy]1-[4-(5,7-dichlorobenzofuran-2-ylmethyl)piperazin-1-yl]ethan-1-one]",≥ 90
11,"O=C(CO[C@H]1CC[C@H](Nc2ccc([N+](=O)[O-])c(C(F)(F)F)c2)CC1)N1CCN(c2nc3cc(C(F)(F)F)ccc3o2)CC1 [Compound 400, 2-[4-(4-nitro-3-trifluoromethyl-phenylamino)-cyclohexyloxy]-1-[4-(5-trifluoromethyl-benzooxazol-2-yl)-piperazin-1-yl]-ethanone]",≥ 90
12,"N#Cc1ccc(N[C@H]2CC[C@H](OCC(=O)N3CCN(Cc4nc5cc(Cl)ccc5o4)CC3)CC2)cc1C(F)(F)F [Compound 288, 2-[(4-[[4-cyano-3-(trifluoromethyl)phenyl]amino]cyclohexyl)-oxy]1-[4-(5-chlorobenzoxazol-2-ylmethyl)piperazin-1-yl]ethan-1-one]",≥ 90
13,"N#Cc1ccc(N[C@H]2CC[C@H](OCC(=O)N3CCN(c4nc5cc(C(F)(F)F)ccc5s4)CC3)CC2)cc1C(F)(F)F [Compound 358, 4-(4-{2-oxo-2-[4-(5-trifluoromethyl-benzothiazol-2-yl)-piperazin-1-yl]-ethoxy}-cyclohexylamino)-2-trifluoromethyl-benzonitrile]",≥ 90
14,"O=C(CO[C@H]1CC[C@H](Nc2ccc(S(=O)(=O)C(F)(F)F)cc2)CC1)N1CCN(c2nc3cc(C(F)(F)F)ccc3s2)CC1 [Compound 364, 2-[4-(4-trifluoromethanesulfonyl-phenylamino)-cyclohexyloxy]-1-[4-(5-trifluoromethyl-benzothiazol-2-yl)-piperazin-1-yl]-ethanone]",≥ 90
15,"O=C(CO[C@H]1CC[C@H](Nc2ccc([N+](=O)[O-])c(C(F)(F)F)c2)CC1)N1CCN(C(=O)c2nc3cc(C(F)(F)F)ccc3s2)CC1 [Compound 338, 2-[(4-[[4-nitro-3-(trifluoromethyl)phenyl]amino]cyclohexyl)-oxy]1-[4-[5-(trifluoromethyl)benzothiazole-2-carbonyl]piperazin-1-yl]ethan-1-one]",≥ 90
16,"O=C(CO[C@H]1CC[C@H](Nc2ccc([N+](=O)[O-])c(C(F)(F)F)c2)CC1)N1CCN(Cc2oc3ccc(F)cc3c2Cl)CC1 [Compound 312, 1-[4-(3-chloro-5-fluoro-benzofuran-2-ylmethyl)-piperazin-1-yl]-2-[4-(4-nitro-3-trifluoromethyl-phenylamino)-cyclohexyloxy]-ethanone]",≥ 90
17,"O=C(COc1ccc(Nc2ccc([N+](=O)[O-])c(C(F)(F)F)c2)cc1)N1CCN(CC2Cc3cc(Cl)ccc3O2)CC1 (stereo not drawn) [Compound 68, 1-[4-[(5-chloro-2,3-dihydro-1-benzofuran-2-yl)methyl]piperazin-1-yl]-2-(4-[[4-nitro-3-(trifluoromethyl)phenyl]amino]phenoxy)ethan-1-one]",≥ 90
18,"O=C(CO[C@H]1CC[C@H](Nc2ccc([N+](=O)[O-])c(C(F)(F)F)c2)CC1)N1CCN(c2nc3cc(OC(F)(F)F)ccc3o2)CC1 [Compound 401, 2-[4-(4-nitro-3-trifluoromethyl-phenylamino)-cyclohexyloxy]-1-[4-(5-trifluoromethoxy-benzooxazol-2-yl)-piperazin-1-yl]-ethanone]",≥ 90
19,"O=C(CO[C@H]1CC[C@H](Nc2ccc([N+](=O)[O-])c(C(F)(F)F)c2)CC1)N1CCN(CCc2cc3cc(C(F)(F)F)ccc3o2)CC1 [Compound 324, 2-[4-[4-nitro-3-(trifluoromethyl)anilino]cyclohexoxy]-1-[4-[2-[5-(trifluoromethyl)benzofuran-2-yl]ethyl]piperazin-1-yl]ethanone]",≥ 90
20,"O=C(CO[C@H]1CC[C@H](Nc2ccc([N+](=O)[O-])c(C(F)(F)F)c2)CC1)N1CCN(Cc2oc3ccc(Cl)cc3c2Cl)CC1 [Compound 316, 1-[4-(3,5-dichloro-benzofuran-2-ylmethyl)-piperazin-1-yl]-2-[4-(4-nitro-3-trifluoromethyl-phenylamino)-cyclohexyloxy]-ethanone]",≥ 90
21,"CC(CN1CCN(c2ccc3cc(F)ccc3c2)CC1)C(=O)N1CCC(Nc2ccc([N+](=O)[O-])c(C(F)(F)F)c2)CC1 (stereo not drawn) [Compound 16, 3-[4-(6-fluoronaphthalen-2-yl)piperazin-1-yl]-2-methyl-1-(4-[[4-nitro-3-(trifluoromethyl)phenyl]amino]piperi-din-1-yl)propan-1-one]",≥ 90
22,O=C(CO[C@H]1CC[C@H](Nc2ccc([N+](=O)[O-])c(C(F)(F)F)c2)CC1)N1CCN(Cc2cc3cc(F)cc(F)c3o2)CC1 [Compound 375],≥ 90
23,"O=C(CO[C@H]1CC[C@H](Nc2ccc([N+](=O)[O-])c(C(F)(F)F)c2)CC1)N1CCN(c2ccc3cc(Br)ccc3c2)CC1 [Compound 268, 1-[4-(6-bromo-naphthalen-2-yl)-piperazin-1-yl]-2-[4-(4-nitro-3-trifluoromethyl-phenylamino)-cyclohexyloxy]-ethanone]",≥ 90
24,"O=C(NCCO[C@H]1CC[C@H](Nc2ccc([N+](=O)[O-])c(C(F)(F)F)c2)CC1)C(=O)Nc1ccc2ccccc2c1 [Compound 75, N-(naphthalen-2-yl)-N-[2-[(4-[[4-nitro-3-(trifluoromethyl)phenyl]amino]cyclohexyl)oxy]ethyl]ethanediamide]",≥ 90
25,"O=C(CO[C@H]1CC[C@H](Nc2ccc([N+](=O)[O-])c(C(F)(F)F)c2)CC1)N1CCN(Cc2cc3c(Cl)cc(Cl)cc3o2)CC1 [Compound 318, 2-[(4-[[4-nitro-3-(trifluoromethyl)phenyl]amino]cyclohexyl)-oxy]1-[4-(4,6-dichlorobenzofuran-2-ylmethyl)piperazin-1-yl]ethan-1-one]",≥ 90
26,"O=C(NCCO[C@H]1CC[C@H](Nc2ccc([N+](=O)[O-])c(C(F)(F)F)c2)CC1)C(=O)Nc1ccc2ccccc2n1 [Compound 238, N^1-(2-(-4-(4-nitro-3-(trifluoromethyl)phenylamino)cyclohexyloxy)ethyl)-N^2-(quinolin-2-yl)oxalamide]",≥ 90
27,"O=C(COc1ccc2ccc([N+](=O)[O-])c(C(F)(F)F)c2c1)N1CCN(c2ccc3cc(C(F)(F)F)ccc3n2)CC1 [Compound 131, 2-[[7-nitro-8-(trifluoromethyl)naphthalen-2-yl]oxy]-1-[4-[6-(trifluoromethyl)quinolin-2-yl]piperazin-1-yl]ethan-1-one]",≥ 90
